Laboratory results from patent US20200361871A1 (Enterprise Therapeutics Ltd., priority 2018, published 2020).
pEC50: −log10 of the molar value.

Target: human TMEM16A (TMEM16Aabc variant) (Homo sapiens, UniProt Q5XXA6, DEL476-501, form not given)
Assay: Automated whole-cell patch clamp (Qpatch) TMEM16A potentiator assay in FRT cells stably expressing human TMEM16A
Assay type: cell-based
Settings: for % Potentiation @ 3.33 μM Avg: 3.33 μM solution of test compound, percentage increase of baseline TMEM16A current; for pEC50: calculated EC50, Qpatch TMEM16A current at +70 mV
Summary of the method: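 Potentiation was read as the rise in peak +70 mV current over baseline (%), from cumulative 5-min additions of compound. Recordings used whole-cell automated patch of FRT cells stably carrying human TMEM16Aabc, with pipette Ca2+ buffered to give ~20% maximal current. EC50 and efficacy came from concentration-response fits.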

Sequence of human TMEM16A (TMEM16Aabc variant) (Q5XXA6 with tags, fused parts or gaps DEL476-501): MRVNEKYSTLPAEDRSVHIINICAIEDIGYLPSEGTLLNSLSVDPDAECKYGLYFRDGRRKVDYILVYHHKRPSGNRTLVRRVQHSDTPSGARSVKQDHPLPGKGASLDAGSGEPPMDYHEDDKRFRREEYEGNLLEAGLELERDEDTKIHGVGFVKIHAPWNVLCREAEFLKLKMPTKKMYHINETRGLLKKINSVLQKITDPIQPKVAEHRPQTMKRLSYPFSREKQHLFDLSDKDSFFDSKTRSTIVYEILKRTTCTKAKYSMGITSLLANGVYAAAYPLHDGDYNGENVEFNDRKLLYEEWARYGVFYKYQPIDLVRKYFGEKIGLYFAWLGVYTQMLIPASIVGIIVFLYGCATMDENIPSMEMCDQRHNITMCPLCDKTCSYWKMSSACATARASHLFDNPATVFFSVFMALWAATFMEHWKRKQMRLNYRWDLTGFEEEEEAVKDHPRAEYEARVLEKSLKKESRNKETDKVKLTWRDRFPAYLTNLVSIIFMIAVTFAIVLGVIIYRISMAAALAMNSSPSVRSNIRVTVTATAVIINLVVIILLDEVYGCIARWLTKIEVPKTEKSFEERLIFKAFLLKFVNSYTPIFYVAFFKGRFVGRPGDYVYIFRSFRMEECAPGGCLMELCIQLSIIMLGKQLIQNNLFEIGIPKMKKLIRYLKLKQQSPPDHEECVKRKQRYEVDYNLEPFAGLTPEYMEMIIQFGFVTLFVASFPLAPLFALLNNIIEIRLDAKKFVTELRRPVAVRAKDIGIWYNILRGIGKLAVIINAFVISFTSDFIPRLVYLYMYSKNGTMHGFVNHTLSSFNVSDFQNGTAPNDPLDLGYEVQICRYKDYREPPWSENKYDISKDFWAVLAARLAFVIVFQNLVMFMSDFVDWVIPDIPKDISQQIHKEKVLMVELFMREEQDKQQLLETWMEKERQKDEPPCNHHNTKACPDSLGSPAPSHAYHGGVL

## C#CC(C)(C)NC(=O)c1cc(NC(=O)Cc2ccc(C(F)(F)F)cc2O)ccn1 [Example 78.1, N-(1,1-Dimethylprop-2-ynyl)-4-[[2-[2-hydroxy-4-(trifluoromethyl)phenyl]acetyl]amino]pyridine-2-carboxamide]
  % Potentiation @ 3.33 μM Avg: 238%
  pEC50: 7.30

## C#CC(C)(C)NC(=O)c1cc(NC(=O)CC2CCCC2)ccn1 [Example 22.2, 4-[(2-Cyclopentylacetyl)amino]-N-(1,1-dimethylprop-2-ynyl)pyridine-2-carboxamide]
  % Potentiation @ 3.33 μM Avg: 157%
  pEC50: 6.59

## CC(C)(C)c1ccc(O)c(CC(=O)Nc2ccnc(C(=O)NC3(C#N)CCOCC3)c2)c1 [Example 25.1, 4-[[2-(5-tert-Butyl-2-hydroxy-phenyl)acetyl]amino]-N-(4-cyanotetrahydropyran-4-yl)pyridine-2-carboxamide]
  % Potentiation @ 3.33 μM Avg: 393%
  pEC50: 6.85

## CC(C)(C)NC(=O)c1cc(NC(=O)Cc2cc(C#N)ccc2O)ccn1 [Example 6, N-tert-Butyl-4-[[2-(5-cyano-2-hydroxy-phenyl)acetyl]amino]pyridine-2-carboxamide]
  % Potentiation @ 3.33 μM Avg: 162%
  pEC50: 5.94

## CC(C)(CCNC(=O)OC(C)(C)C)NC(=O)c1cc(NC(=O)Cc2cc(Cl)ccc2O)ccn1 [Example 1.8, tert-Butyl N-[3-[[4-[[2-(5-chloro-2-hydroxy-phenyl)acetyl]amino]pyridine-2-carbonyl]amino]-3-methyl-butyl]carbamate]
  % Potentiation @ 3.33 μM Avg: 300%
  pEC50: 6.39

## CC(C)(CCO)NC(=O)c1cc(NC(=O)Cc2cc(Cl)ccc2O)ccn1 [Example 35.14, 4-[[2-(5-Chloro-2-hydroxy-phenyl)acetyl]amino]-N-(3-hydroxy-1,1-dimethyl-propyl)pyridine-2-carboxamide]
  % Potentiation @ 3.33 μM Avg: 172%
  pEC50: 6.57

## CC(C)(C#N)NC(=O)c1cc(NC(=O)C2(C)CCCC2)ccn1 [Example 83.4, N-(1-Cyano-1-methyl-ethyl)-4-[(1-methylcyclopentanecarbonyl)amino]pyridine-2-carboxamide]
  % Potentiation @ 3.33 μM Avg: 58%

## CC1(O)CCC(NC(=O)c2cc(NC(=O)Cc3cc(Cl)ccc3O)ccn2)CC1 (stereo not drawn) [Example 35.1, 4-[[2-(5-Chloro-2-hydroxy-phenyl)acetyl]amino]-N-(4-hydroxy-4-methyl-cyclohexyl) pyridine-2-carboxamide]
  % Potentiation @ 3.33 μM Avg: 51%

## N#CC1(NC(=O)c2cc(NC(=O)Cc3ccccc3Cl)ccn2)CCC1 [Example 30, 4-[[2-(2-Chlorophenyl)acetyl]amino]-N-(1-cyanocyclobutyl)pyridine-2-carboxamide]
  % Potentiation @ 3.33 μM Avg: 113%
  pEC50: 5.91

## CC(C)(NC(=O)c1cc(NC(=O)Cc2ccccc2Cl)ccn1)C(F)F [Example 30.13, 4-[[2-(2-Chlorophenyl)acetyl]amino]-N-(2,2-difluoro-1,1-dimethyl-ethyl)pyridine-2-carboxamide]
  % Potentiation @ 3.33 μM Avg: 205%
  pEC50: 6.42

## CC(C)(CCNCC(F)(F)F)NC(=O)c1cc(NC(=O)Cc2cc(Cl)ccc2O)ccn1 [Example 43, 4-[[2-(5-Chloro-2-hydroxy-phenyl)acetyl]amino]-N-[1,1-dimethyl-3-(2,2,2-trifluoroethylamino)propyl]pyridine-2-carboxamide]
  % Potentiation @ 3.33 μM Avg: 174%
  pEC50: 6.15

## CCC(C)(C)NC(=O)c1cccc(NC(=O)Cc2cc(Cl)ccc2O)c1 [Example 1.5, 3-[[2-(5-Chloro-2-hydroxy-phenyl)acetyl]amino]-N-(1,1-dimethylpropyl)benzamide]
  % Potentiation @ 3.33 μM Avg: 149%
  pEC50: 6.47

## CC(C)(C)NC(=O)c1cccc(NC(=O)Cc2cc(C(F)(F)F)ccc2O)c1 [Example 2.17, N-tert-Butyl-3-[[2-[2-hydroxy-5-(trifluoromethyl)phenyl]acetyl]amino]benzamide]
  % Potentiation @ 3.33 μM Avg: 172%
  pEC50: 6.57

## O=C(Cc1cc(Cl)ccc1O)Nc1cccc(C(=O)NC23CC4CC(CC(C4)C2)C3)c1 [Example 1.2, N-(1-Adamantyl)-3-[[2-(5-chloro-2-hydroxy-phenyl)acetyl]amino]benzamide]
  % Potentiation @ 3.33 μM Avg: 170%
  pEC50: 6.27

## Cc1cc(NC(=O)Cc2cc(Cl)ccc2O)cc(C(=O)NC(C)(C)C)c1 [Example 9.1, N-tert-Butyl-3-[[2-(5-chloro-2-hydroxy-phenyl)acetyl]amino]-5-methyl-benzamide]
  % Potentiation @ 3.33 μM Avg: 77%
  pEC50: 5.34

## Cc1[nH]c2c(F)cccc2c1CC(=O)Nc1cccc(C(=O)NC(C)(C)C)c1 [Example 4.4, N-tert-Butyl-3-[[2-(7-fluoro-2-methyl-1H-indol-3-yl)acetyl]amino]benzamide]
  % Potentiation @ 3.33 μM Avg: 61%
  pEC50: 5.38

## Cc1ccccc1CC(=O)Nc1ccnc(C(=O)NC(C)(C)C)c1 [Example 5.7, N-tert-Butyl-4-[[2-(o-tolyl)acetyl]amino]pyridine-2-carboxamide]
  % Potentiation @ 3.33 μM Avg: 131%
  pEC50: 5.91

## CC(C)(C)NC(=O)c1cc(NC(=O)Cc2cc(Cl)cc(Br)c2O)ccn1 [Example 59, 4-[[2-(3-Bromo-5-chloro-2-hydroxy-phenyl)acetyl]amino]-N-tert-butyl-pyridine-2-carboxamide]
  % Potentiation @ 3.33 μM Avg: 175%

## O=C(Cc1cc(Cl)ccc1O)Nc1ccnc(C(=O)N[C@@H]2CCC[C@H]2O)c1 [Example 33, 4-[[2-(5-Chloro-2-hydroxy-phenyl)acetyl]amino]-N-[(1R,2R)-2-hydroxycyclopentyl] pyridine-2-carboxamide]
  % Potentiation @ 3.33 μM Avg: 245%
  pEC50: 6.62

## CC(C)(C#N)NC(=O)c1cc(NC(=O)c2cccc(C(F)(F)F)n2)ccn1 [Example 83.16, N-[2-[(1-Cyano-1-methyl-ethyl)carbamoyl]-4-pyridyl]-6-(trifluoromethyl)pyridine-2-carboxamide]
  % Potentiation @ 3.33 μM Avg: 60%

## C#CC(C)(C)NC(=O)c1cc(NC(=O)CC(C)(C)C)ccn1 [Example 22.1, 4-(3,3-Dimethylbutanoylamino)-N-(1,1-dimethylprop-2-ynyl)pyridine-2-carboxamide]
  % Potentiation @ 3.33 μM Avg: 114%

## CC(C)(C)NC(=O)c1cc(NC(=O)Nc2ccccc2O)ccn1 [Example 65, N-tert-Butyl-4-[(2-hydroxyphenyl)carbamoylamino]pyridine-2-carboxamide]
  % Potentiation @ 3.33 μM Avg: 55%

## CC(C)(C#N)NC(=O)c1cc(NC(=O)c2ccnn2CC(F)(F)F)ccn1 [Example 83.19, N-(1-Cyano-1-methyl-ethyl)-4-[[2-(2,2,2-trifluoroethyl)pyrazole-3-carbonyl]amino]pyridine-2-carboxamide]
  % Potentiation @ 3.33 μM Avg: 28%

## CC(C)(C)NC(=O)c1cc(NC(=O)NCCc2ccccc2)ccn1 [Example 64.2, N-tert-Butyl-4-(2-phenylethylcarbamoylamino)pyridine-2-carboxamide]
  % Potentiation @ 3.33 μM Avg: 61%

## CC(C)(CCNC(=O)C(C)(C)C)NC(=O)c1cc(NC(=O)Cc2cc(Cl)ccc2O)ccn1 [Example 45, 4-[[2-(5-Chloro-2-hydroxy-phenyl)acetyl]amino]-N-[3-(2,2-dimethylpropanoylamino)-1,1-dimethyl-propyl]pyridine-2-carboxamide]
  % Potentiation @ 3.33 μM Avg: 151%

## CC(C)(C)NC(=O)c1cc(NC(=O)Cc2cc(Cl)c(Br)cc2O)ccn1 [Example 3.4a, 4-[[2-(4-Bromo-5-chloro-2-hydroxy-phenyl)acetyl]amino]-N-tert-butyl-pyridine-2-carboxamide]
  % Potentiation @ 3.33 μM Avg: 206%
  pEC50: 6.85

## O=C(Cc1ccc2ncccc2c1)Nc1ccnc(C(=O)NC2CCOCC2)c1 [Example 63, 4-[[2-(6-Quinolyl)acetyl]amino]-N-tetrahydropyran-4-yl-pyridine-2-carboxamide]
  % Potentiation @ 3.33 μM Avg: 37%

## O=C(Cc1ccccc1Cl)Nc1ccnc(C(=O)NC23CC(F)(C2)C3)c1 [Example 30.9, 4-[[2-(2-Chlorophenyl)acetyl]amino]-N-(3-fluoro-1-bicyclo[1.1.1]pentanyl)pyridine-2-carboxamide]
  % Potentiation @ 3.33 μM Avg: 100%
  pEC50: 6.33

## CC(C)(C#N)NC(=O)c1cc(NC(=O)c2cccc3ncsc23)ccn1 [Example 83.30, N-[2-[(1-Cyano-1-methyl-ethyl)carbamoyl]-4-pyridyl]-1,3-benzothiazole-7-carboxamide]
  % Potentiation @ 3.33 μM Avg: 93%

## CC(C)(C)NC(=O)c1cc(NC(=O)Cc2ccco2)ccn1 [Example 5.4, N-tert-Butyl-4-[[2-(2-furyl)acetyl]amino] pyridine-2-carboxamide]
  % Potentiation @ 3.33 μM Avg: 57%

## CC(C)(C)c1ccc(CC(=O)Nc2ccnc(C(=O)N[C@H]3CCCC[C@@H]3O)c2)cc1O [Example 93.1, 4-[2-(4-tert-butyl-3-hydroxyphenyl)acetamido]-N-[(1S,2S)-2-hydroxycyclohexyl]pyridine-2-carboxamide]
  % Potentiation @ 3.33 μM Avg: 207%
  pEC50: 7.30

## CC(C)(C)NC(=O)c1cc(NC(=O)Cc2cc(F)ccc2O)ccn1 [Example 20, N-tert-Butyl-4-[[2-(5-fluoro-2-hydroxy-phenyl)acetyl]amino]pyridine-2-carboxamide]
  % Potentiation @ 3.33 μM Avg: 111%
  pEC50: 6.66

## CC(C)(C)NC(=O)c1cc(NC(=O)Cc2ccc(C(F)(F)F)cc2O)ccn1 [Example 3.7b, N-tert-Butyl-4-[[2-[2-hydroxy-4-(trifluoromethyl)phenyl]acetyl]amino]pyridine-2-carboxamide]
  % Potentiation @ 3.33 μM Avg: 160%
  pEC50: 6.74

## CC(C)(C)NC(=O)CC(C)(C)NC(=O)c1cc(NC(=O)Cc2cc(Cl)ccc2O)ccn1 [Example 49, N-[3-(tert-Butylamino)-1,1-dimethyl-3-oxo-propyl]-4-[[2-(5-chloro-2-hydroxy-phenyl)acetyl]amino]pyridine-2-carboxamide]
  % Potentiation @ 3.33 μM Avg: 226%
  pEC50: 6.17

## O=C(Cc1ccccc1Cl)Nc1ccnc(C(=O)NC2CCOCC2)c1 [Example 23.9, 4-[[2-(2-Chlorophenyl)acetyl]amino]-N-tetrahydropyran-4-yl-pyridine-2-carboxamide]
  % Potentiation @ 3.33 μM Avg: 47%
